SMILES | melting point [°C]
O=C(Nc1nc(-c2ccco2)c(C(=O)C2CCOCC2)s1)c1cc(F)cc(F)c1 [Compound 494, 3,5-Difluoro-N-[4-(2-furyl)-5-(tetrahydropyran-4-ylcarbonyl)thiazol-2-yl]benzamide] | 259 to 265
O=C(Nc1nc(-c2ccco2)c(C(=O)C2CCOCC2)s1)c1cccc2c1OCCO2 [Compound 495, N-[4-(2-Furyl)-5-(tetrahydropyran-4-ylcarbonyl)thiazol-2-yl]-1,4-benzodioxane-5-carboxamide] | 188 to 190
O=C(Nc1nc(-c2ccco2)c(C(=O)C2CCOCC2)s1)c1ccc2c(c1)OCO2 [Compound 496, N-[4-(2-Furyl)-5-(tetrahydropyran-4-ylcarbonyl)thiazol-2-yl]-1,3-benzodioxole-5-carboxamide] | 194 to 196
O=C(Nc1nc(-c2ccco2)c(C(=O)C2CCOCC2)s1)c1cccc2c1OC(F)(F)O2 [Compound 497, 2,2-Difluoro-N-[4-(2-furyl)-5-(tetrahydropyran-4-ylcarbonyl)thiazol-2-yl]-1,3-benzodioxole-4-carboxamide] | 206 to 207
O=C(Nc1nc(-c2ccco2)c(C(=O)C2CCOCC2)s1)c1ccc2c(c1)OC(F)(F)O2 [Compound 498, 2,2-Difluoro-N-[4-(2-furyl)-5-(tetrahydropyran-4-ylcarbonyl)thiazol-2-yl]-1,3-benzodioxole-5-carboxamide] | 124 to 129
O=C(Nc1nc(-c2ccco2)c(C(=O)C2CCOCC2)s1)c1ccnc(Cl)c1 [Compound 499, 2-Chloro-N-(4-(2-furyl)-5-(tetrahydropyran-4-ylcarbonyl)thiazol-2-yl]pyridine-4-carboxamide] | 185 to 186
Cc1cc(C(=O)Nc2nc(-c3ccco3)c(C(=O)C3CCOCC3)s2)ccn1 [Compound 500, N-[4-(2-Furyl)-5-(tetrahydropyran-4-ylcarbonyl)thiazol-2-yl]-2-methylpyridine-4-carboxamide] | 169 to 173
O=C(Nc1nc(-c2ccco2)c(C(=O)C2CCOCC2)s1)c1cccnc1 [Compound 501, N-[4-(2-Furyl)-5-(tetrahydropyran-4-ylcarbonyl)thiazol-2-yl]pyridine-3-carboxamide] | 209 to 212
O=C(Nc1nc(-c2ccco2)c(C(=O)C2CCOCC2)s1)c1ccc(N2CCOCC2)nc1 [Compound 503, N-[4-(2-Furyl)-5-(tetrahydropyran-4-ylcarbonyl)thiazol-2-yl]-2-morpholinopyridine-5-carboxamide] | 166 to 170
O=C(Nc1nc(-c2ccco2)c(C(=O)C2CCOCC2)s1)c1ccc(C(F)(F)F)nc1 [Compound 505, N-[4-(2-Furyl)-5-(tetrahydropyran-4-ylcarbonyl)thiazol-2-yl]-2-(trifluoromethyl)pyridine-5-carboxamide] | 217 to 222
Cc1cncc(C(=O)Nc2nc(-c3ccco3)c(C(=O)C3CCOCC3)s2)c1 [Compound 506, N-[4-(2-Furyl)-5-(tetrahydropyran-4-ylcarbonyl)thiazol-2-yl]-5-methylpyridine-3-carboxamide] | 239 to 243
O=C(Nc1nc(-c2ccco2)c(C(=O)C2CCOCC2)s1)c1ccccn1 [Compound 507, N-[4-(2-Furyl)-5-(tetrahydropyran-4-ylcarbonyl)thiazol-2-yl]pyridine-2-carboxamide] | 185 to 186
O=C(Nc1nc(-c2ccco2)c(C(=O)C2CCOCC2)s1)c1cccs1 [Compound 517, N-[4-(2-Furyl)-5-(tetrahydropyran-4-ylcarbonyl)thiazol-2-yl]thiophene-2-carboxamide] | 231 to 232
O=C(Nc1nc(-c2ccco2)c(C(=O)C2CCOCC2)s1)c1ccsc1 [Compound 518, N-[4-(2-Furyl)-5-(tetrahydropyran-4-ylcarbonyl)thiazol-2-yl]thiophene-3-carboxamide] | 227 to 229
O=C(Nc1nc(-c2ccco2)c(C(=O)C2CCOCC2)s1)c1cnn(-c2ccccc2)c1 [Compound 521, N-[4-(2-Furyl)-5-(tetrahydropyran-4-ylcarbonyl)thiazol-2-yl]-1-phenylpyrazole-4-carboxamide] | 217 to 220
O=C(CCc1ccccc1)Nc1nc(-c2ccco2)c(C(=O)C2CCOCC2)s1 [Compound 527, N-[4-(2-Furyl)-5-(tetrahydropyran-4-ylcarbonyl)thiazol-2-yl]-3-phenylpropanamide] | 161 to 164
O=C(C=Cc1ccccc1)Nc1nc(-c2ccco2)c(C(=O)C2CCOCC2)s1 [Compound 528, N-[4-(2-Furyl)-5-(tetrahydropyran-4-ylcarbonyl)thiazol-2-yl]-3-phenylacrylamide] | 253 to 256
O=C(COc1ccccc1)Nc1nc(-c2ccco2)c(C(=O)C2CCOCC2)s1 [Compound 529, N-[4-(2-Furyl)-5-(tetrahydropyran-4-ylcarbonyl)thiazol-2-yl]-2-phenoxyacetamide] | 148 to 150

More lines, now with the values ahead:

melting point [°C] | SMILES
200 to 205 | O=C(Nc1nc(-c2ccco2)c(C(=O)C2CCOCC2)s1)c1cnccn1 [Compound 509, N-[4-(2-Furyl)-5-(tetrahydropyran-4-ylcarbonyl)thiazol-2-yl]pyrazine-2-carboxamide]
130 to 131 | Cc1cnc(C(=O)Nc2nc(-c3ccco3)c(C(=O)C3CCOCC3)s2)cn1 [Compound 510, N-[4-(2-Furyl)-5-(tetrahydropyran-4-ylcarbonyl)thiazol-2-yl]-5-methylpyrazine-2-carboxamide]
209 to 212 | Cc1ccc(C(=O)Nc2nc(-c3ccco3)c(C(=O)C3CCOCC3)s2)o1 [Compound 512, N-[4-(2-Furyl)-5-(tetrahydropyran-4-ylcarbonyl)thiazol-2-yl]-5-methylfuran-2-carboxamide]
236 to 238 | O=C(Nc1nc(-c2ccco2)c(C(=O)C2CCOCC2)s1)c1ccoc1 [Compound 516, N-[4-(2-Furyl)-5-(tetrahydropyran-4-ylcarbonyl)thiazol-2-yl]furan-3-carboxamide]
243 to 247 | Cn1cc(C(=O)Nc2nc(-c3ccco3)c(C(=O)C3CCOCC3)s2)cn1 [Compound 519, N-[4-(2-Furyl)-5-(tetrahydropyran-4-ylcarbonyl)thiazol-2-yl]-1-methylpyrazole-4-carboxamide]
170 to 174 | CCn1cc(C(=O)Nc2nc(-c3ccco3)c(C(=O)C3CCOCC3)s2)cn1 [Compound 520, 1-Ethyl-N-[4-(2-furyl)-5-(tetrahydropyran-4-ylcarbonyl)thiazol-2-yl]pyrazole-4-carboxamide]
115 to 117 | O=C(c1sc(NC(=O)C2CCCO2)nc1-c1ccco1)C1CCOCC1 (centres unmarked) [Compound 523, N-[4-(2-Furyl)-5-(tetrahydropyran-4-ylcarbonyl)thiazol-2-yl]tetrahydrofuran-2-carboxamide]
164 to 166 | O=C(Nc1nc(-c2ccco2)c(C(=O)C2CCOCC2)s1)C1CCOC1 (centres unmarked) [Compound 524, N-[4-(2-Furyl)-5-(tetrahydropyran-4-ylcarbonyl)thiazol-2-yl]tetrahydrofuran-3-carboxamide]
206 to 209 | O=C(CC1CCOCC1)Nc1nc(-c2ccco2)c(C(=O)C2CCOCC2)s1 [Compound 525, N-[4-(2-Furyl)-5-(tetrahydropyran-4-ylcarbonyl)thiazol-2-yl]-2-(tetrahydropyran-4-yl)acetamide]
140 to 142 | O=C(Cc1ccccc1)Nc1nc(-c2ccco2)c(C(=O)C2CCOCC2)s1 [Compound 526, N-[4-(2-Furyl)-5-(tetrahydropyran-4-ylcarbonyl)thiazol-2-yl]-2-phenylacetamide]
148 to 149 | COCC(=O)Nc1nc(-c2ccco2)c(C(=O)C2CCOCC2)s1 [Compound 530, N-[4-(2-Furyl)-5-(tetrahydropyran-4-ylcarbonyl)thiazol-2-yl]-2-methoxyacetamide]
121 to 126 | CCOCC(=O)Nc1nc(-c2ccco2)c(C(=O)C2CCOCC2)s1 [Compound 532, 2-Ethoxy-N-[4-(2-furyl)-5-(tetrahydropyran-4-ylcarbonyl)thiazol-2-yl]acetamide]
129 to 130 | CN(C)CC(=O)Nc1nc(-c2ccco2)c(C(=O)C2CCOCC2)s1 [Compound 533, 2-(Dimethylamino)-N-[4-(2-furyl)-5-(tetrahydropyran-4-ylcarbonyl)thiazol-2-yl]acetamide]
103 to 105 | COCCN(C)CC(=O)Nc1nc(-c2ccco2)c(C(=O)C2CCOCC2)s1 [Compound 534, N-[4-(2-Furyl)-5-(tetrahydropyran-4-ylcarbonyl)thiazol-2-yl]-2-[N-(2-methoxyethyl)-N-methylamino]acetamide]
115 to 117 | O=C(CN1CCCC1)Nc1nc(-c2ccco2)c(C(=O)C2CCOCC2)s1 [Compound 536, N-[4-(2-Furyl)-5-(tetrahydropyran-4-ylcarbonyl)thiazol-2-yl]-2-(1-pyrrolidinyl)acetamide]
103 to 104 | COC[C@H]1CCCN1CC(=O)Nc1nc(-c2ccco2)c(C(=O)C2CCOCC2)s1 [Compound 537, N-[4-(2-Furyl)-5-(tetrahydropyran-4-ylcarbonyl)thiazol-2-yl]-2-[(2R)-2-(methoxymethyl)pyrrolidin-1-yl]acetamide]
146 to 147 | O=C(CN1CCCCC1)Nc1nc(-c2ccco2)c(C(=O)C2CCOCC2)s1 [Compound 542, N-[4-(2-Furyl)-5-(tetrahydropyran-4-ylcarbonyl)thiazol-2-yl]-2-piperidinoacetamide]
178 to 180 | O=C(CN1CCC(O)CC1)Nc1nc(-c2ccco2)c(C(=O)C2CCOCC2)s1 [Compound 543, N-[4-(2-Furyl)-5-(tetrahydropyran-4-ylcarbonyl)thiazol-2-yl]-2-(4-hydroxypiperidino)acetamide]
109 to 111 | COC1CCN(CC(=O)Nc2nc(-c3ccco3)c(C(=O)C3CCOCC3)s2)CC1 [Compound 545, N-[4-(2-Furyl)-5-(tetrahydropyran-4-ylcarbonyl)thiazol-2-yl]-2-(4-methoxypiperidino)acetamide]
151 to 153 | CC1(O)CCN(CC(=O)Nc2nc(-c3ccco3)c(C(=O)C3CCOCC3)s2)CC1 [Compound 546, N-[4-(2-Furyl)-5-(tetrahydropyran-4-ylcarbonyl)thiazol-2-yl]-2-(4-hydroxy-4-methylpiperidino)acetamide]

— patent US7718808B2, “Thiazole derivatives” (Kyowa Hakko Kirin Co., Ltd., priority 2003, dated 2010)
